Results: patent publication US20260297085A1, “1 H-PYRROLO[2,3-B]PYRIDIN-4-YL]-2-OXOPYRROLIDINE-3-CARBONITRILE DERIVATIVES AS TYROSINE KINASE 2 (TYK2) INHIBITORS FOR THE TREATMENT OF INFLAMMATORY DISEASES” (BIOGEN MA INC., priority 2023, published 2026)
Counter-ions that a name gives are not always drawn.

Key:
[1] = molecular target: T1, human JAK1 kinase domain (JH1) (Homo sapiens, UniProt P23458); assay: JH1 biochemical assay for JAK1 (ADP-Glo kinase assay, recombinant JH1 catalytic domain, JAK3-342 peptide, 35 μM ATP)
T1 construct: recombinantly generated catalytic kinase (also known as JH1) domain of human JAK1, JAK2, JAK3 and TYK2
Procedure: (§1) Compounds of the disclosure were assessed for their ability to inhibit TYK2, JAK1, JAK2, and JAK3 activity. The inhibitory properties of the compounds of the disclosure described herein can be evidenced by testing in any one of the following protocols.
(§2) The kinase activity of recombinantly generated catalytic kinase (also known as JH1) domain of human JAK1, JAK2, JAK3 and TYK2 were evaluated in a plate-based assay using the ADP-Glo™ Kinase Assay platform. Specifically, 4 nM of recombinant JAK1 kinase domain is used to phosphorylate 50 μM of a JAK3-342 (sequence ALVDGYFRLTT) peptide in the presence of 35 μM ATP. Catalytic activities of recombinant JAK2, JAK3 and TYK2 kinase domain (0.2, 0.3 and 2 nM, respectively) are evaluated by the phosphorylation status of the JAK3-974 (50 μM; sequence LPLDKDYYVVR) peptide with the addition of ATP (15, 4 and 10 μM, respectively). The reactions proceed for 100 minutes and the catalytic activity is quantified by first depleting the unused ATP, converting the hydrolyzed ADP into ATP to generate luminescence in a luciferase reaction; which is the basis of the ADP-Glo platform. Compounds are tested at either 10 μM or 1 μM top concentration, 11 points of 3-fold dilution. The data is normalized and the percent activity versus log concentration of compound is fitted with a 4-parameter logistic model to generate a curve and an IC50 value.

[2] = molecular target: T2, human JAK2 kinase domain (JH1) (Homo sapiens, UniProt O60674); assay: JH1 biochemical assay for JAK2 (ADP-Glo kinase assay, recombinant JH1 catalytic domain, JAK3-974 peptide, 15 μM ATP)
T2 construct: recombinantly generated catalytic kinase (also known as JH1) domain of human JAK1, JAK2, JAK3 and TYK2
Procedure: as §1, §2

[3] = molecular target: T3, human JAK3 kinase domain (JH1) (Homo sapiens, UniProt P52333); assay: JH1 biochemical assay for JAK3 (ADP-Glo kinase assay, recombinant JH1 catalytic domain, JAK3-974 peptide, 4 μM ATP)
T3 construct: recombinantly generated catalytic kinase (also known as JH1) domain of human JAK1, JAK2, JAK3 and TYK2
Procedure: as §1, §2

[4] = molecular target: T4, human TYK2 kinase domain (JH1) (Homo sapiens, UniProt P29597); assay: JH1 biochemical assay for TYK2 (ADP-Glo kinase assay, recombinant JH1 catalytic domain, JAK3-974 peptide, 10 μM ATP)
T4 construct: recombinantly generated catalytic kinase (also known as JH1) domain of human JAK1, JAK2, JAK3 and TYK2
T4 sequence (P29597 897-1176 limits assumed): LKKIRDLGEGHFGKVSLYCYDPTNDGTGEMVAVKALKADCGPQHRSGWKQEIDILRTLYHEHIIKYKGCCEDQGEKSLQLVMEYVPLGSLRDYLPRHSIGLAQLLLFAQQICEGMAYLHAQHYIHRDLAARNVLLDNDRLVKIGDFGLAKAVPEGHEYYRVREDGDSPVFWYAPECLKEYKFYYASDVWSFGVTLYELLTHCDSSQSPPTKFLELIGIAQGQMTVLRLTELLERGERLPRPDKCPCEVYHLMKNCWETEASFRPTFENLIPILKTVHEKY
Procedure: as §1, §2

T2 sequence (O60674 849-1124 limits assumed): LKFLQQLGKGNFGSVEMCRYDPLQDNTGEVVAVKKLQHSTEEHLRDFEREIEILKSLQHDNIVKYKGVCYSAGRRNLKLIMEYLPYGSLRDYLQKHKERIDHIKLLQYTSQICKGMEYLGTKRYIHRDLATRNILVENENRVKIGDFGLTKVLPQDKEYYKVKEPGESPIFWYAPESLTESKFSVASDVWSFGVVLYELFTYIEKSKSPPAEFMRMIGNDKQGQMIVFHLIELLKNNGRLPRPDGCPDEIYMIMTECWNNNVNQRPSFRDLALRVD
T3 sequence (P52333 822-1111 limits assumed): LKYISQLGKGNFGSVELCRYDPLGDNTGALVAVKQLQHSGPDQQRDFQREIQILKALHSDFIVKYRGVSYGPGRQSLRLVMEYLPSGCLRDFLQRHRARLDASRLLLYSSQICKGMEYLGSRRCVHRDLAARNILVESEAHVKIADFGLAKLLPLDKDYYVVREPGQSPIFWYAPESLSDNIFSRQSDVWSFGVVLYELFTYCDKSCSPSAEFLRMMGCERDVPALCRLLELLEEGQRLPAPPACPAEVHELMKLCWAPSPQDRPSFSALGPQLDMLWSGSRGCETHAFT
T1 sequence (P23458 875-1153 limits assumed): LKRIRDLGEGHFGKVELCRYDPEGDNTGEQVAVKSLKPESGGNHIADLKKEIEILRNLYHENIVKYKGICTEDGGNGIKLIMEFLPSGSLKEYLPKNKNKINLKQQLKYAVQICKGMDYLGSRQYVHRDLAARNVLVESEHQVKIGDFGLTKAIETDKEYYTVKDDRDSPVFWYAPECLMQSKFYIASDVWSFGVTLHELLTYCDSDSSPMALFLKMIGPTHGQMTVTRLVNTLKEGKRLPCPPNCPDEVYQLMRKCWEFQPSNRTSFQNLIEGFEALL

Row | Structure (SMILES) | IC50 ([1]; JH1 kinase domain, ADP-Glo) | IC50 ([2]; JH1 kinase domain, ADP-Glo) | IC50 ([3]; JH1 kinase domain, ADP-Glo) | IC50 ([4]; JH1 kinase domain, ADP-Glo) | IC50 ([1]; JAK1 JH1, ADP-Glo) | IC50 ([2]; JAK2 JH1, ADP-Glo) | IC50 ([3]; JAK3 JH1, ADP-Glo) | IC50 ([4]; TYK2 JH1, ADP-Glo)
1 | Cn1cc(-c2cc3c(N4CC[C@H](C5CC5)C4=O)ccnn3c2)cn1 (single isomer, unassigned) [Example 36] | > 10000 nM | 5000 to 10000 nM | > 10000 nM | > 100 nM | – | – | – | –
2 | C[C@@H]1CN(c2nc(-c3cncc(C(F)(F)F)c3)cn3nccc23)C(=O)[C@]1(C#N)C1CC1 [Example 260, (3R,4S)-3-cyclopropyl-4-methyl-2-oxo-1-(6-(5-(trifluoromethyl)pyridin-3-yl)pyrazolo[1,5-a]pyrazin-4-yl)pyrrolidine-3-carbonitrile trifluoroacetate] | – | – | – | – | 100 to 1000 nM | 1000 to 5000 nM | 1000 to 5000 nM | 50 to 100 nM
3 | C[C@@H]1CN(c2ccnn3cc(-c4nc5ccccn5n4)cc23)C(=O)[C@]1(C#N)C1CC1 [Example 108, (3R,4S)-1-(6-([1,2,4]triazolo[1,5-a]pyridin-2-yl)pyrrolo[1,2-b]pyridazin-4-yl)-3-cyclopropyl-4-methyl-2-oxopyrrolidine-3-carbonitrile trifluoroacetate] | 1000 to 5000 nM | > 10000 nM | 1000 to 5000 nM | 50 to 100 nM | – | – | – | –
4 | C[C@@H]1CN(c2ccnn3cc(-c4cncc(Cl)c4)cc23)C(=O)[C@]1(C#N)C1CC1 [Example 87, (3R,4S)-1-(6-(5-chloropyridin-3-yl)pyrrolo[1,2-b]pyridazin-4-yl)-3-cyclopropyl-4-methyl-2-oxopyrrolidine-3-carbonitrile] | 5000 to 10000 nM | > 10000 nM | > 10000 nM | 20 to 50 nM | – | – | – | –
5 | Cc1cnn(-c2cc3c(N4C[C@@H](C)[C@@](C#N)(C5CC5)C4=O)ccnn3c2)n1 [Example 343, (3R,4S)-3-cyclopropyl-4-methyl-1-(6-(4-methyl-2H-1,2,3-triazol-2-yl)pyrrolo[1,2-b]pyridazin-4-yl)-2-oxopyrrolidine-3-carbonitrile] | – | – | – | – | > 10000 nM | > 10000 nM | > 10000 nM | > 100 nM
6 | COc1ccc(-c2cn3nccc3c(N3C[C@@H](C)[C@@](C#N)(C4CC4)C3=O)n2)cn1 [Example 224, (3R,4S)-3-cyclopropyl-1-(6-(6-methoxypyridin-3-yl)pyrazolo[1,5-a]pyrazin-4-yl)-4-methyl-2-oxopyrrolidine-3-carbonitrile] | – | – | – | – | 100 to 1000 nM | 1000 to 5000 nM | 1000 to 5000 nM | 20 to 50 nM
7 | C[C@@H]1CN(c2nc(-c3ncccc3F)cn3nccc23)C(=O)[C@]1(C#N)C1CC1 [Example 212, (3R,4S)-3-cyclopropyl-1-(6-(3-fluoropyridin-2-yl)pyrazolo[1,5-a]pyrazin-4-yl)-4-methyl-2-oxopyrrolidine-3-carbonitrile] | 1000 to 5000 nM | > 10000 nM | 1000 to 5000 nM | 50 to 100 nM | – | – | – | –
8 | C[C@@H]1CN(c2nccn3nc(-c4cnn(C)c4)cc23)C(=O)[C@]1(C#N)C1CC1 [Example 216, (3R,4S)-3-cyclopropyl-4-methyl-1-(2-(1-methyl-1H-pyrazol-4-yl)pyrazolo[1,5-a]pyrazin-4-yl)-2-oxopyrrolidine-3-carbonitrile] | > 10000 nM | > 10000 nM | > 10000 nM | > 100 nM | – | – | – | –
9 | Cc1nc(-c2cc3c(N4C[C@@H](C)[C@@](C#N)(C5CC5)C4=O)ccnn3c2)ccc1C#N [Example 119, 6-(4-((3R,4S)-3-cyano-3-cyclopropyl-4-methyl-2-oxopyrrolidin-1-yl)pyrrolo[1,2-b]pyridazin-6-yl)-2-methylnicotinonitrile trifluoroacetate] | 1000 to 5000 nM | 1000 to 5000 nM | 100 to 1000 nM | 20 to 50 nM | – | – | – | –
